As usually defined, the pEC50 is the negative decadic logarithm of the EC50, by convention in mol/L.

Structures are written as SMILES. pEC50: −log10 of the molar value. Where only a bound is given, the exact number is not on record here.

The test system of this assay is HBV viral production from HepAD38 cells. The assay can be described thus: Activity of test compounds on viral production from HepAD38 cells (viral load by qPCR of HBV core sequence in supernatant). The assay is classed as cell-based. The settings on record: Hepatitis B virus, 120 h, 5 days incubation, HBV DNA in supernatant by qPCR, top concentration 10 μM, read-out: Viral Load EC50 Activity range. The procedure, abridged:
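EC50 and CC50 come from four-parameter fits of supernatant viral load and CellTiter-Glo viability, respectively. Viral load was measured by core-region TaqMan qPCR against HBV DNA standards and compared with DMSO controls. Tet-free HepAD38 cells (50,000/well, 2% FBS) were exposed to compound, highest 10 μM, for 5 days at 37° C.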
For `CC(C)(C)OCCN1[C@@H](C(=O)Nc2ccc(F)c(Cl)c2)C[C@@H](c2nccs2)NS1(=O)=O` (relative stereo) [HBV-CSU-071-ISO-II, Cis-2-(2-(tert-Butoxy)ethyl)-N-(3-chloro-4-fluorophenyl)-5-(thiazol-2-yl)-1,2,6-thiadiazinane-3-carboxamide 1,1-dioxide], the pEC50 was 5.30 to 6.00. The value for `C#CCN1[C@H](C(=O)Nc2ccc(F)c(Cl)c2)C[C@H](c2nccs2)NS1(=O)=O` (relative stereo) [HBV-CSU-089-ISO-I, Cis-N-(3-chloro-4-fluorophenyl)-2-(prop-2-yn-1-yl)-5-(thiazol-2-yl)-1,2,6-thiadiazinane-3-carboxamide 1,1-dioxide] was > 6.00. In the case of `O=C(Nc1ccc(F)c(Cl)c1)[C@H]1C[C@@H](c2nccs2)NS(=O)(=O)N1CCOCc1ccccc1` (relative stereo) [HBV-CSU-095-ISO-I, Cis-2-(2-(benzyloxy)ethyl)-N-(3-chloro-4-fluorophenyl)-5-(thiazol-2-yl)-1,2,6-thiadiazinane-3-carboxamide 1,1-dioxide], the pEC50 was 5.30 to 6.00.

Regarding `O=C(Nc1ccc(F)c(Cl)c1)[C@@H]1C[C@H](c2nccs2)NS(=O)(=O)N1CCO` (relative stereo) [HBV-CSU-097-ISO-II, Cis-N-(3-Chloro-4-fluorophenyl)-2-(2-hydroxyethyl)-5-(thiazol-2-yl)-1,2,6-thiadiazinane-3-carboxamide 1,1-dioxide], the pEC50 was < 5.30.

As for `CCN(CC)CCCN1[C@H](C(=O)Nc2ccc(F)c(Cl)c2)C[C@H](c2nccs2)NS1(=O)=O` (relative stereo) [HBV-CSU-101-ISO-II, Cis-N-(3-Chloro-4-fluorophenyl)-2-(3-(diethylamino)propyl)-5-(thiazol-2-yl)-1,2,6-thiadiazinane-3-carboxamide 1,1-dioxide], the pEC50 was < 5.30. The value for `CN1[C@@H](C(=O)Nc2ccc(F)c(Cl)c2)C[C@@H](c2ccc(-c3ccccc3)s2)NS1(=O)=O` (relative stereo) [HBV-CSU-116-ISO-II, Cis-N-(3-chloro-4-fluorophenyl)-2-methyl-5-(5-phenylthiophen-2-yl)-1,2,6-thiadiazinane-3-carboxamide 1,1-dioxide] was 5.30 to 6.00; that for `CCOCCN1[C@H](C(=O)Nc2ccc(F)c(Cl)c2)C[C@H](c2nccs2)NS1(=O)=O` (relative stereo) [HBV-CSU-142-ISO-II, Cis-N-(3-Chloro-4-fluorophenyl)-2-(2-ethoxyethyl)-5-(thiazol-2-yl)-1,2,6-thiadiazinane-3-carboxamide 1,1-dioxide] was > 6.00; that for `CN1[C@@H](C(=O)Nc2ccc(F)c(Cl)c2)C[C@@H](c2ccc(-c3ccc(NS(C)(=O)=O)cc3)s2)NS1(=O)=O` (relative stereo) [HBV-CSU-163-ISO-II, Cis-N-(3-chloro-4-fluorophenyl)-2-methyl-5-(5-(4-(methylsulfonamido)phenyl)thiophen-2-yl)-1,2,6-thiadiazinane-3-carboxamide 1,1-dioxide] was > 6.00. The value for `CN1[C@@H](C(=O)Nc2ccc(F)c(Cl)c2)C[C@@H](c2ncc(-c3ccc(NS(C)(=O)=O)cc3)s2)NS1(=O)=O` (relative stereo) [HBV-CSU-179, Cis-N-(3-Chloro-4-fluorophenyl)-2-methyl-5-(5-(4-(methylsulfonamido)phenyl)thiazol-2-yl)-1,2,6-thiadiazinane-3-carboxamide 1,1-dioxide] was > 6.00; that for `CN1[C@H](C(=O)Nc2ccc(F)c(Cl)c2)C[C@H](c2ccc(OCC(=O)O)cc2)NS1(=O)=O` (relative stereo) [HBV-CSU-216-ISO-I, Cis-2-(4-(5-((3-Chloro-4-fluorophenyl)carbamoyl)-6-methyl-1,1-dioxido-1,2,6-thiadiazinan-3-yl)phenoxy)acetic acid] was 5.30 to 6.00; that for `CN1[C@H](C(=O)Nc2ccc(F)c(Cl)c2)C[C@H](c2cccc(F)c2)NS1(=O)=O` (relative stereo) [HBV-CSU-231-ISO-I, Cis-N-(3-Chloro-4-fluorophenyl)-5-(3-fluorophenyl)-2-methyl-1,2,6-thiadiazinane-3-carboxamide 1,1-dioxide] was > 6.00. The value for `CN1[C@@H](C(=O)Nc2ccc(F)c(Cl)c2)C[C@@H](c2ccc(-c3cnn(C)c3)cc2)NS1(=O)=O` (relative stereo) [HBV-CSU-246-ISO-I, Cis-N-(3-Chloro-4-fluorophenyl)-2-methyl-5-(4-(1-methyl-1H-pyrazol-4-yl)phenyl)-1,2,6-thiadiazinane-3-carboxamide 1,1-dioxide] was < 5.30; that for `CN1[C@H](C(=O)Nc2ccc(F)c(Cl)c2)C[C@H](c2ncc(-c3cncs3)s2)NS1(=O)=O` (relative stereo) [HBV-CSU-278-ISO-I, Cis-5-([5,5′-Bithiazol]-2-yl)-N-(3-chloro-4-fluorophenyl)-2-methyl-1,2,6-thiadiazinane-3-carboxamide 1,1-dioxide] was > 6.00. For the compound `CN1[C@@H](C(=O)Nc2ccc(F)c(Cl)c2)C[C@@H](c2cc(-c3cncn3C)cs2)NS1(=O)=O` (relative stereo) [HBV-CSU-285-ISO-II, Cis-N-(3-Chloro-4-fluorophenyl)-2-methyl-5-(4-(1-methyl-1H-imidazol-5-yl)thiophen-2-yl)-1,2,6-thiadiazinane-3-carboxamide 1,1-dioxide], the pEC50 was > 6.00. The value for `CN1[C@H](C(=O)Nc2ccc(F)c(Cl)c2)C[C@H](c2cc(-c3ccnn3C)cs2)NS1(=O)=O` (relative stereo) [HBV-CSU-289-ISO-I, Cis-N-(3-chloro-4-fluorophenyl)-2-methyl-5-(4-(1-methyl-1H-pyrazol-5-yl)thiophen-2-yl)-1,2,6-thiadiazinane-3-carboxamide 1,1-dioxide] was > 6.00. The value for `Cc1cc([C@H]2C[C@@H](C(=O)Nc3ccc(F)c(Cl)c3)N(C)S(=O)(=O)N2)sc1-c1cnn(C)c1` (relative stereo) [HBV-CSU-300-ISO-I, Cis-N-(3-Chloro-4-fluorophenyl)-5-(4-methyl-5-(1-methyl-1H-pyrazol-4-yl)thiophen-2-yl)-2-methyl-1,2,6-thiadiazinane-3-carboxamide 1,1-dioxide] was > 6.00; that for `Cc1c(-c2csc([C@@H]3C[C@H](C(=O)Nc4ccc(F)c(Cl)c4)N(C)S(=O)(=O)N3)c2)cnn1C` (relative stereo) [HBV-CSU-315-ISO-II, Cis-N-(3-chloro-4-fluorophenyl)-5-(4-(1,5-dimethyl-1H-pyrazol-4-yl)thiophen-2-yl)-2-methyl-1,2,6-thiadiazinane-3-carboxamide 1,1-dioxide] was > 6.00; that for `Cc1nn(C)cc1-c1csc([C@@H]2C[C@H](C(=O)Nc3ccc(F)c(Cl)c3)N(C)S(=O)(=O)N2)c1` (relative stereo) [HBV-CSU-316-ISO-II, Cis-N-(3-chloro-4-fluorophenyl)-5-(4-(1,3-dimethyl-1H-pyrazol-4-yl)thiophen-2-yl)-2-methyl-1,2,6-thiadiazinane-3-carboxamide 1,1-dioxide] was > 6.00.

On to `Cc1nn(C)c(C)c1-c1csc([C@@H]2C[C@H](C(=O)Nc3ccc(F)c(Cl)c3)N(C)S(=O)(=O)N2)c1` (relative stereo) [HBV-CSU-317-ISO-II, Cis-N-(3-chloro-4-fluorophenyl)-2-methyl-5-(4-(1,3,5-trimethyl-1H-pyrazol-4-yl)thiophen-2-yl)-1,2,6-thiadiazinane-3-carboxamide 1,1-dioxide], for which the pEC50 is > 6.00. To `CN1[C@@H](C(=O)Nc2ccc(F)c(Cl)c2)C[C@@H](c2cc(-c3cnn(C(F)(F)F)c3)cs2)NS1(=O)=O` (relative stereo) [HBV-CSU-325-ISO-II, Cis-N-(3-Chloro-4-fluorophenyl)-2-methyl-5-(4-(1-(trifluoromethyl)-1H-pyrazol-4-yl)thiophen-2-yl)-1,2,6-thiadiazinane-3-carboxamide 1,1-dioxide] belongs < 5.30; to `[2H]C([2H])([2H])N1[C@@H](C(=O)Nc2ccc(F)c(Cl)c2)C[C@@H](c2ncc(-c3cn(C([2H])([2H])[2H])cn3)s2)NS1(=O)=O` (relative stereo) [HBV-CSU-337-ISO-II, Cis-N-(3-Chloro-4-fluorophenyl)-2-(methyl-d3)-5-(5-(1-(methyl-d3)-1H-imidazol-4-yl)thiazol-2-yl)-1,2,6-thiadiazinane-3-carboxamide 1,1-dioxide], 5.30 to 6.00.

As to `[2H]C([2H])([2H])N1[C@@H](C(=O)Nc2ccc(F)c(Cl)c2)C[C@@H](c2ncc(-c3cn(C)cn3)s2)NS1(=O)=O` (relative stereo) [HBV-CSU-338-ISO-II, Cis-N-(3-Chloro-4-fluorophenyl)-2-(methyl-d3)-5-(5-(1-methyl-1H-imidazol-4-yl)thiazol-2-yl)-1,2,6-thiadiazinane-3-carboxamide 1,1-dioxide], the pEC50 was 5.30 to 6.00. To `CN1[C@@H](C(=O)Nc2ccc(F)c(Cl)c2)C[C@@H](c2ccc3c(c2)ncn3C)NS1(=O)=O` (relative stereo) [HBV-CSU-360-ISO-II, Cis-N-(3-chloro-4-fluorophenyl)-2-methyl-5-(1-methyl-1H-benzo[d]imidazol-5-yl)-1,2,6-thiadiazinane-3-carboxamide 1,1-dioxide] belongs > 6.00. To `[2H]C([2H])([2H])N1[C@@H](C(=O)Nc2ccc(F)c(Cl)c2)C[C@@H](c2ccc(Br)s2)NS1(=O)=O` (relative stereo) [HBV-CSU-370-ISO-II, Cis-5-(5-bromothiophen-2-yl)-N-(3-chloro-4-fluorophenyl)-2-(methyl-d3)-1,2,6-thiadiazinane-3-carboxamide 1,1-dioxide] belongs 5.30 to 6.00; to `CN1[C@H](C(=O)Nc2ccc(F)c(Cl)c2)C[C@H](c2ccc(C(F)(F)F)cc2)NS1(=O)=O` (stereo in doubt) [HBV-CSU-217-ISO-I, Cis-N-(3-Chloro-4-fluorophenyl)-2-methyl-5-(4-(trifluoromethyl)phenyl)-1,2,6-thiadiazinane-3-carboxamide 1,1-dioxide], < 5.30.
